Where two headings read alike, the source gives them in different places.

Our source for the IC50 and Selectivity values is patent US10858342B2, “Bicyclic imidazole derivatives useful for the treatment of renal diseases, cardiovascular diseases and fibrotic diseases” (Boehringer Ingelheim International GmbH, priority 2016, dated 2020).

Type in all cases: biochemical, cynomolgus monkey
The target in test [1] is aldosterone synthase (CYP11B2) (Macaca fascicularis, UniProt A0A2K5UPL9). Put plainly: Inhibition of aldosterone synthase (cynomolgus adrenal mitochondria, aldosterone by mass spectrometry). The note with it: 2 μM corticosterone substrate, 50 units CYP11B2, 90 min, 37° C.; read-out: Aldosterone Inhibition IC50. The method, then:
(§1) The aldosterone synthase and cortisol synthase inhibition assays employ cynomolgus adrenal gland mitochondria as the source of aldosterone synthase (CYP11B2) and cortisol synthase (CYP11B1). […] One unit of CYP11B2 and CYP11B1 activity in these preparations is defined as the amount of enzyme that generates 1 pmol of product in one hour under the conditions described.
(§2) The compounds of the invention may be evaluated for aldosterone synthase inhibition by the following assay:
(§3) Assays are performed in 96-well format in a final volume of 60 microL/well, containing 100 mM potassium phosphate, pH 7.4, 1% (v/v) DMSO, and additionally, 2 μM of corticosterone and 50 units of CYP11B2 activity. Reactions are started by the addition of NADPH to 1 mM and allowed to proceed for 90 minutes at 37° C. Reactions are terminated by the addition of 60 μL of MeCN containing an internal standard for mass spectrometry. One hundred microliters are then transferred to a glass filter plate and centrifuged at 570×g for 5 minutes and the filtrate is collected. Reaction product aldosterone is quantified by mass spectrometry. To determine the assay blank value (0% activity), NADPH is omitted from some reactions.
(§4) Dose dependent inhibition is quantified by the inclusion of compound at various concentrations. Maximum activity (100%) is defined by reactions containing NADPH, but without compound.

Test [2] concerns aldosterone synthase (CYP11B2). The test is described as above. The note with it: selectivity for aldosterone synthase inhibition over cortisol synthase (CYP11B1) inhibition, fold. The method, then: as §1, §2, §3, §4
For test [3], the target named is cortisol synthase (CYP11B1) (Macaca fascicularis, UniProt A0A2K5ULY1). Put plainly: Inhibition of cortisol synthesis (cynomolgus adrenal mitochondria, cortisol by mass spectrometry). The method, then:
The aldosterone synthase and cortisol synthase inhibition assays employ cynomolgus adrenal gland mitochondria as the source of aldosterone synthase (CYP11B2) and cortisol synthase (CYP11B1). Mitochondria are prepared from frozen cynomolgus monkey adrenal glands according to Method A described in by J. D. McGarry et al. (Biochem. J., 1983, 214, 21-28), with a final resuspension in the AT buffer described in R. Yamaguchi et al. (Cell Death and Differentiation, 2007, 14, 616-624), frozen as aliquots in liquid nitrogen and stored at −80° C. until use. One unit of CYP11B2 and CYP11B1 activity in these preparations is defined as the amount of enzyme that generates 1 pmol of product in one hour under the conditions described.
as §3
Dose dependent inhibition is quantified by the inclusion of compound at various concentrations. Maximum activity (100%) is defined by reactions containing NADPH, but without compound. Activities at each concentration are expressed as a percentage of the maximum activity (y-axis) and plotted against concentration of compound (x-axis) and the concentration corresponding to 50% activity (IC50) determined using the XLFit curve-fitting program using a 4-parameter logistic model.
Assays are performed as for aldosterone synthase except for the use of 150 units of CYP11B1, 11-deoxycortisol as substrate and cortisol measured as product.

Where [4] appears, read: 11-deoxycortisol substrate, 150 units CYP11B1; read-out: Cortisol Inhibition IC50.

Sequence of aldosterone synthase (CYP11B2) (Macaca fascicularis, UniProt A0A2K5UPL9) (A0A2K5UPL9 1-503): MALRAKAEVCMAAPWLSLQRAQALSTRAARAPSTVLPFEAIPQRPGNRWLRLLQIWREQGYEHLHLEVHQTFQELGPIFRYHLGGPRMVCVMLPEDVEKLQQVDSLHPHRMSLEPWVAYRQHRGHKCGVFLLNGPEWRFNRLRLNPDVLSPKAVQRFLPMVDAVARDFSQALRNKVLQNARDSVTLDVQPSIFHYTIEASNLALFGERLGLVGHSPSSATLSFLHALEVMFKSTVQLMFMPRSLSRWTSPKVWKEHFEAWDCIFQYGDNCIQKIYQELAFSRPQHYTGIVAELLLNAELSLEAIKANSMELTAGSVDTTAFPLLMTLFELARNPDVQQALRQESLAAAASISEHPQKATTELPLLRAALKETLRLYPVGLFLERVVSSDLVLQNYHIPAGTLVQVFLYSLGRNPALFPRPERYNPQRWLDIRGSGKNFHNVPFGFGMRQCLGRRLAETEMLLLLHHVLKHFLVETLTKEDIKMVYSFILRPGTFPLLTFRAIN

For `CN1C[C@@H](n2cnc3c2C(=O)CC(C)(C)C3)CCC1=O` [C-ACR, 6,6-Dimethyl-3-((S)-1-methyl-6-oxo-piperidin-3-yl)-3,5,6,7-tetrahydrobenzoimidazol-4-one], the IC50 (as a rule, the concentration needed to halve the response being measured) was 785 nM in test [1] and over 30000 nM in test [3] (setting [4]). Also, the Selectivity in test [2] was 38.
Consider `COc1ccc(Cn2cnc3c2C(=O)CC(C)(C)C3)cc1` [C-ADQ, 3-(4-Methoxy-benzyl)-6,6-dimethyl-3,5,6,7-tetrahydro-benzoimidazol-4-one], for which the IC50 in test [1] came to 96 nM; in test [3] (setting [4]) it was 2100 nM. For the same compound, the Selectivity in test [2] amounted to 22.
Take `CCO[C@H]1C[C@H](n2cnc3c2C(=O)CC(C)(C)C3)C12CCC2` (relative stereo) [C-ADM, 3-((1S,3S)-3-Ethoxy-spiro[3.3]hept-1-yl)-6,6-dimethyl-3,5,6,7-tetrahydro-benzoimidazol-4-one]: the figures for the IC50 in test [1] and in test [3] (setting [4]) were 72 nM and over 30000 nM, respectively. The Selectivity in test [2] stood at 420.
For `CN1C(=O)CCc2cc(-n3cnc4c3C(=O)CC3(CC3)C4)ccc21` [C-ACH, 3-(1-Methyl-2-oxo-3,4-dihydroquinolin-6-yl)spiro[5,7-dihydrobenzimidazole-6,1′-cyclopropane]-4-one], the IC50 in test [1] was 16 nM; in test [3] (setting [4]), 4900 nM. This compound returned a Selectivity in test [2] of 300.
“3-(4-Cyanophenyl)-6,6-(3-tetrahydrofuran)-3,5,6,7-benzimidiazolo-4-one [C-ABA-B]”: the figures for the IC50 in test [1] and in test [3] (setting [4]) were 16 nM and 850 nM, respectively. Also, the Selectivity in test [2] stood at 53.
In the case of `CC1(C)CC(=O)c2c(ncn2-c2ccc(C#N)c(Cl)c2)C1` [C-ABE, 2-Chloro-4-(5,5-dimethyl-7-oxo-4,5,6,7-tetrahydro-benzoimidazol-1-yl)-benzonitrile], the IC50 in test [1] worked out at 1.3 nM; in test [3] (read-out: Cortisol Inhibition IC50; 11-deoxycortisol substrate, 150 units CYP11B1), 110 nM. Further, in test [2], the Selectivity turned out to be 79.
With `O=C1CCCc2ncn(-c3ccc4c(c3)CCO4)c21` [C-AAE, 3-(2,3-Dihydro-benzofuran-5-yl)-3,5,6,7-tetrahydro-benzoimidazol-4-one], the IC50 in test [1] amounted to 11 nM; in test [3] (setting [4]), 9400 nM. In test [2], this compound had a Selectivity of 890.
Take `CC1(C)CC(=O)c2c(ncn2Cc2ccccc2)C1` [C-ADR, 3-Benzyl-6,6-dimethyl-3,5,6,7-tetrahydro-benzoimidazol-4-one]: the IC50 in test [1] was determined as 97 nM; in test [3] (setting [4]), 9400 nM. The compound also yielded a Selectivity in test [2] of 97.
As to `CC1(C)CC(=O)c2c(ncn2-c2cc(Cl)cc(Cl)c2)C1` [C-ABH, 3-(3,5-Dichloro-phenyl)-6,6-dimethyl-3,5,6,7-tetrahydro-benzoimidazol-4-one], the IC50 turned out to be 22 nM in test [1] and 5200 nM in test [3] (setting [4]). In test [2], this compound showed a Selectivity of 240.
Take `CC1(C)CC(=O)c2c(ncn2-c2cccc(C(F)(F)F)c2)C1` [C-ABZ, 6,6-Dimethyl-3-(3-trifluoromethyl-phenyl)-3,5,6,7-tetrahydro-benzoimidazol-4-one]: the IC50 came out at 73 nM in test [1] and 27000 nM in test [3] (setting [4]). In addition, the Selectivity in test [2] is 370.
For `CC1(C)CC(=O)c2c(ncn2-c2ccc(C(F)(F)F)cc2)C1` [C-ACI, 6,6-Dimethyl-3-(4-trifluoromethyl-phenyl)-3,5,6,7-tetrahydro-benzoimidazol-4-one], the IC50 in test [1] stood at 62 nM; in test [3] (setting [4]), 18000 nM. For the same compound, in test [2], the Selectivity was found to be 290.
In the same order, the values of `CC1(C)CC(=O)c2c(ncn2Cc2ccc(-n3cncn3)cc2)C1` [C-ADB, 6,6-Dimethyl-3-(4-[1,2,4]triazol-1-yl-benzyl)-3,5,6,7-tetrahydro-benzoimidazol-4-one] are 540 nM, 7400 nM and 14.
As to `COC(=O)c1ccc(Cn2cnc3c2C(=O)CC(C)(C)C3)cc1` [C-ACZ, 4-(5,5-Dimethyl-7-oxo-4,5,6,7-tetrahydro-benzoimidazol-1-ylmethyl)-benzoic acid methyl ester], the IC50 in test [1] amounted to 34 nM; in test [3] (setting [4]), 1400 nM. This compound had a Selectivity in test [2] of 41.
As to `CC1(C)CC(=O)c2c(ncn2-c2ccccc2)C1` [C-ACA, 6,6-Dimethyl-3-phenyl-3,5,6,7-tetrahydro-benzoimidazol-4-one], the IC50 was 250 nM in test [1] and 12000 nM in test [3] (setting [4]). In test [2], this compound displayed a Selectivity of 46.
The matching figures for `Cc1cc(-n2cnc3c2C(=O)CC(C)(C)C3)ccc1C#N` [C-ABV, 4-(5,5-Dimethyl-7-oxo-4,5,6,7-tetrahydro-benzoimidazol-1-yl)-2-methyl-benzonitrile]: 6.6 nM, 130 nM and 20.
On to `CC(=O)N1CCc2cc(-n3cnc4c3C(=O)CCC4)ccc21` [C-AAA, 3-(1-Acetyl-2,3-dihydro-1H-indol-5-yl)-3,5,6,7-tetrahydro-benzoimidazol-4-one], for which the figures for the IC50 in test [1] and in test [3] (setting [4]) were 510 nM and over 30000 nM, respectively. Further, in test [2], the Selectivity is reported as 59.
On to `CC1(C)CC(=O)c2c(ncn2-c2ccc(Cl)c(Cl)c2)C1` [C-ABD, 3-(3,4-Dichloro-phenyl)-6,6,-dimethyl-3,5,6,7-tetrahydro-benzoimidazol-4-one], for which the IC50 was 3.1 nM in test [1] and 370 nM in test [3] (setting [4]). Further, the Selectivity in test [2] worked out at 120.
`N#Cc1ccc(-n2cnc3c2C(=O)CCC3)cc1` [C-AAL, 4-(7-Oxo-4,5,6,7-tetrahydro-benzoimidazol-1-yl)-benzonitrile]: the IC50 in test [1] stood at 19 nM; in test [3] (setting [4]) it was 4600 nM. The Selectivity in test [2] came to 250.
On to `O=C1CCCc2ncn(-c3ccc4c(c3)OCCCO4)c21` [C-AAJ, 3-(3,4-Dihydro-2H-benzo[b][1,4]dioxepin-7-yl)-3,5,6,7-tetrahydro-benzoimidazol-4-one], for which the figures for the half-maximal inhibitory concentration (IC50) in test [1] and in test [3] (setting [4]) were 440 nM and over 30000 nM, respectively. Further, in test [2], the Selectivity turned out to be 67.
The matching figures for `CC1(C)CC(=O)c2c(ncn2-c2ccc3c(c2)OCO3)C1` [C-ABU, 3-Benzo[1,3]dioxol-5-yl-6,6-dimethyl-3,5,6,7-tetrahydro-benzoimidazol-4-one]: 34 nM, 4200 nM and 120.
For `O=C1CCCc2ncn(-c3ccc4c(c3)CCCN4)c21` [C-ABB, 3-(1,2,3,4-Tetrahydro-quinolin-6-yl)-3,5,6,7-tetrahydro-benzoimidazol-4-one], the IC50 was 250 nM in test [1] and over 30000 nM in test [3] (setting [4]). In addition, the Selectivity in test [2] is recorded as 120.
`Cc1cc(-n2cnc3c2C(=O)CC2(CCC2)C3)ccc1C#N` [C-AAU, 2-Methyl-4-(7-oxospiro[4,6-dihydrobenzimidazole-5,1′-cyclobutan]-1-yl)benzonitrile]: the IC50 in test [1] is 10 nM; in test [3] (setting [4]), 51 nM. In test [2], this compound gave a Selectivity of 5.0.
Regarding `CC(=O)N1CCCc2cc(-n3cnc4c3C(=O)CCC4)ccc21` [C-AAF, 3-(1-Acetyl-1,2,3,4-tetrahydro-quinolin-6-yl)-3,5,6,7-tetrahydro-benzoimidazol-4-one], the values for the IC50 in test [1] and in test [3] (setting [4]) were 37 nM and 10000 nM, respectively. For the same compound, the Selectivity in test [2] is reported as 270.
